Measurements taken from patent US20240226342A1, “REACTIVE OXYGEN SPECIES IMAGING AGENTS” (Washington University, priority 2022, published 2024).
Where “and” joins values, the source holds several entries; their conditions need not be identical. Identical values can stand only once.

Key:
Assay type in all cases: in vivo
[1] = Quantitative biodistribution in normal mice
Protocol: FIG. 8 is a line graph showing biodistribution of 18F-SLN128 in normal BI6 mice in accordance with the present disclosure. Shown is uptake (5 min, 60 min, 2 h) in brain and other critical organs quantified in terms of percent injected dose per gram of the tissue (% ID/g).
Lipopolysaccharide (LPS), is an endotoxin, released from Gram-negative bacteria. Next, the ability of SLN128 to detect either LPS or 3-Nitropropionic acid (3-NP) induced ROS in human cells was evaluated through live-cell fluorescence imaging. LPS is detected by toll-like receptor 4 (TLR4), a broadly expressed pattern recognition receptor found both on different cell types, including glial cells, and neurons. TLR4 engagement triggers the generation of mitochondrial superoxide from electron transport complex I, which in turn promotes bacterial killing. LPS treatment also triggers increased cytokine and chemokine expression in brain thus driving inflammation. Furthermore, 3-NP is an irreversible inhibitor of mitochondrial succinate dehydrogenase (SDH), which has been used to explore the molecular mechanisms of cell death associated with mitochondrial dysfunction and neurodegeneration. […] To this end, intracellular localization of SLN-128 in either the presence or absence of mitotracker deep red (control) was simulataneously assessed in either the LPS or 3-NP stimulated human glioblastoma U87 cells (see e.g., FIG. 4). […] Further, uptake of SLN 128 in U87 cells was compared under identical conditions with mitoSOX, a probe extensively used for assessing mROS. […] To test, whether SLN128 has ability to monitor therapeutic effects in U87 cells under identical conditions, SLN128 was incubated in either presence or absence of resveratrol (commonly used for mitigating mitochondrial ROS production) under 3 different conditions. The probe uptake was quantified as corrected total cell fluorescence (CTCF) using image J as described earlier. […] (see e.g., FIG. 6). […] Uptake in brain and other critical organs was analyzed in terms of percent injected dose per gram of the tissue (% ID/g).
For comparison, brain uptake ratios of [^18F]-AVID-45 ([^18F]-Florbetapir)(2 min/2 h) and [^18F]-Florbetaben (2 min/4 h) in normal mice are 4.07 (% ID/g (brain): 2 min: 7.33±1.54; 2 h: 1.80±0.07; 7.33/1.80; 4.07) 57 and 5.0 (% ID/g (brain): 2 min: 4.77; 4 h: 0.95; 4.77/0.95; 5.02) 58, respectively.

[2] = test system: LPS induced systemic inflammation of mouse brain; experiment: Dynamic PET/CT imaging in LPS-treated mice; conditions: for brain uptake in LPS-treated mice relative to saline-treated mice: 24 h post LPS, frames 45-60 min
Protocol: FIG. 9A-FIG. 9D is an exemplary embodiment showing preclinical PET/CT imaging in accordance with the present disclosure. C57BI6 mice (n=4) were injected with either LPS or saline intraperitoneally. 24 h post treatments, 18F-SLN-128 (100 μCi) was injected via tail-vein into mice. Dynamic PET images were acquired from 0 min to 60 min post tail-vein injection of the radiotracer. PET/CT images as shown are a summation frames from 45-60 min. FIG. 9A is an image showing saline treated mice (control). FIG. 9B is an image showing LPS treated mice (5 μg/g, 24 h post treatment); FIG. 9C is a bar graph showing quantified uptake: % ID/cm3. FIG. 9D is a bar graph showing post imaging biodistribution: Brain Uptake (% ID/g). mean±SD, where **p<0.01 and […] is determined by an unpaired student ttest) in brains of BI6 mice (n=4) 24 h post either LPS- or saline treatments.
Systemic administration of LPS induces oxidative stress and resulting a release of inflammatory cytokines, sustained microglial activation, and neuronal cell loss in brain areas, such as the hippocampus, cerebral cortex, substantia nigra, ventral tegmental area, and thalamus, alters the levels of neurotransmitters in adult animals, and cerebellum. Thus LPS-induced inflammation provides a useful rodent model for preclinical imaging of ^18F-SLN-128. […] Finally, the brain uptake (see e.g., FIG. 9C) derived from PET imaging also correlated with 60 min post imaging quantified uptake (see e.g., FIG. 9D) indicating potential of the radiotracer for imaging endotoxin mediated brain inflammation in vivo. Mitochondrial dysfunction is a major event in the pathogenesis of Huntington disease (HD). It has also been reported that systemic 3-NP administration leads to oxidized proteins in the striatum, as well as a massive loss of striatal neurons. To evaluate potential of ^18F-SLN-128 PET imaging for 3NP-induced ROS-mediated neurodegeneration in mice, PET/CT imaging was performed.

[3] = test system: 3NP-induced ROS-mediated neurodegeneration in mice; experiment: PET/CT imaging after stereotaxic injection of 3-NP into striatum
Protocol: FIG. 10A-FIG. 10D is an exemplary embodiment showing preclinical PET/CT imaging in accordance with the present disclosure. C57BI6 mice (n=4) were injected with either 3-Nitropropionic acid (3-NP) or saline into striatum. 72 h following treatments, 18F-SLN-128 was injected via tail-vein into mice. FIG. 10A includes PET/CT images shown as a summation frames from 45-60 min. Dynamic PET images acquired from 0 min to 60 min post tail-vein injection. Left: Control; Right: 3-NP treated (1 mg/kg, 72 h post treatment). FIG. 10B is a bar graph showing uantified uptake (% ID/cm^3) from PET imaging. FIG. 10C includes images of brains extracted from mice, fixed in PFA/sucrose; sectioned (40 μm); stained with Cresyl violet; Arrow indicates injection site. […]
Systemic administration of LPS induces oxidative stress and resulting a release of inflammatory cytokines, sustained microglial activation, and neuronal cell loss in brain areas, such as the hippocampus, cerebral cortex, substantia nigra, ventral tegmental area, and thalamus, alters the levels of neurotransmitters in adult animals, and cerebellum. […] Finally, the brain uptake (see e.g., FIG. 9C) derived from PET imaging also correlated with 60 min post imaging quantified uptake (see e.g., FIG. 9D) indicating potential of the radiotracer for imaging endotoxin mediated brain inflammation in vivo. […]

For `COc1ccc2c(c1)N(C)C(c1ccc(O)c(OCC[18F])c1)c1cccn1-2` (stereo not shown) [18F-SLN-128], the “brain uptake clearance ratio relative to [18F]-AV-45” value ([1]; healthy mice) was 2.9 fold, the “brain uptake clearance ratio relative to [18F]-Florbetaben” value ([1]; healthy mice) was 2.3 fold and the “clearance ratio relative to the benchmark (≥3.5) for crossing the blood-brain barrier” value ([1]; mouse, in vivo) was 3.3 fold. For the same compound, the “brain clearance ratio 5 min/60 min” value ([1]; normal mice) was 11.4 and 11.3, the “clearance from other critical organs” value ([1]; normal mice) was “excreted from other critical organs over 1 h” and the “defluorination / bone accumulation” value ([1]; normal mice) was “without defluorination (no bone accumulation)”. The brain uptake ([1]; normal mice, 5 min post tail-vein injection) was 4.11±0.32 % ID/g, the brain uptake ([1]; normal mice, 60 min post tail-vein injection) was 0.36±0.01 % ID/g and the “brain uptake in LPS-treated mice relative to saline-treated mice” value [2] was 2.5 fold. The “brain uptake in LPS-treated mice relative to saline-treated mice” value ([2]; listed as 18F-SLN128) was 2 fold, the “retention in brains of LPS treated mice” value ([2]; compared with saline-treated counterparts) was “stable retention in brains of LPS treated mice” and the “correlation of brain uptake with immunohistochemistry” value ([3]; 3-NP treated mice) was “maps with neurodegeneration and microglial activation in the striatum regions”. For the same compound, the “retention in brains of 3-NP treated mice compared with saline treated” value ([3]; 72 h post 3-NP into striatum) was 2 fold.
